Assay results as given in the supplement of paper PMC10307832.

Tests used:
Assay in all cases: relative viability (nuclei count vs DMSO), 5 days (fraction); higher = more cells survive
[1] = compound: CC(C)(C)c1nc(-c2cccc(NS(=O)(=O)c3c(F)cccc3F)c2F)c(-c2ccnc(N)n2)s1 [Dabrafenib] + Nc1ncn([C@H]2C[C@H](O)[C@@H](CO)O2)c(=O)n1 [Decitabine] (partner 2 µM)
Method in brief: (§1)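 Relative viability equals treated-well nuclei counts divided by vehicle-well nuclei counts. Counts came from 4× images of lung cancer cell lines grown in 1536-well plates for 5 days after pin-tool dosing on the day after seeding. Dosing used one drug alone or a fixed anchor-drug dose plus five library-drug doses (not always all listed) in √10 steps, and values are medians of duplicate plates.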

[2] = compound: NC(=O)c1ccc(N(C(N)=O)c2c(F)cccc2F)nc1-c1ccc(F)cc1F [VX-702] + CC1(C)CCC(c2ccc(Cl)cc2)=C(CN2CCN(c3ccc(C(=O)NS(=O)(=O)c4ccc(N[C@H](CCN5CCOCC5)CSc5ccccc5)c(S(=O)(=O)C(F)(F)F)c4)cc3)CC2)C1 [Navitoclax] (partner 0.5 µM)
Method in brief: as §1

[3] = compound: CC(C)(C)c1nc(-c2cccc(NS(=O)(=O)c3c(F)cccc3F)c2F)c(-c2ccnc(N)n2)s1 [Dabrafenib] + COc1cc2c(Oc3ccc(NC(=O)C4(C(=O)Nc5ccc(F)cc5)CC4)cc3F)ccnc2cc1OCCCN1CCOCC1 [Foretinib] (partner 0.25 µM)
Method in brief: as §1

[4] = compound: NC(=O)c1ccc(N(C(N)=O)c2c(F)cccc2F)nc1-c1ccc(F)cc1F [VX-702] + Nc1ncn([C@H]2C[C@H](O)[C@@H](CO)O2)c(=O)n1 [Decitabine] (partner 2 µM)
Method in brief: as §1

| Cell Line | relative viability ([1]; first compound 0.003 µM) | relative viability ([1]; first compound 0.009487 µM) | relative viability ([1]; first compound 0.03 µM) | relative viability ([1]; first compound 0.09487 µM) | relative viability ([1]; first compound 0.3 µM) | relative viability ([2]; first compound 0.02 µM) | relative viability ([2]; first compound 0.2 µM) | relative viability ([2]; first compound 0.6325 µM) | relative viability ([2]; first compound 2 µM) | relative viability ([3]; first compound 0.003 µM) | relative viability ([3]; first compound 0.009487 µM) | relative viability ([3]; first compound 0.03 µM) | relative viability ([3]; first compound 0.09487 µM) | relative viability ([3]; first compound 0.3 µM) | relative viability ([4]; first compound 0.02 µM) | relative viability ([4]; first compound 0.2 µM) | relative viability ([4]; first compound 0.6325 µM) | relative viability ([4]; first compound 2 µM) |
| --- | --- | --- | --- | --- | --- | --- | --- | --- | --- | --- | --- | --- | --- | --- | --- | --- | --- | --- |
| LU99A | 0.965 | 0.954 | 0.708 | 0.85 | 0.907 | 0.857 | 0.878 | 0.813 | 0.698 | 0.942 | 0.702 | 0.715 | 0.756 | 0.79 | 0.93 | 0.869 | 0.93 | 0.872 |
| LXF-289 | 0.353 | 0.353 | 0.372 | 0.397 | 0.351 | 1 | 0.957 | 0.935 | 0.961 | 1.01 | 1.03 | 0.993 | 0.931 | 1.01 | 0.313 | 0.403 | 0.381 | 0.357 |
| NCI-H23 | – | 0.343 | 0.352 | 0.333 | 0.32 | 0.701 | 0.798 | 0.805 | 0.933 | – | 1.04 | 0.906 | 0.878 | 0.873 | 0.322 | 0.35 | 0.321 | 0.317 |
| NCI-H322M | – | 0.72 | – | 0.656 | 0.737 | 1.2 | 1.02 | 1.19 | 1.28 | – | 1.19 | 0.75 | 0.879 | 0.945 | 0.67 | 0.668 | 0.765 | 0.745 |
| NCI-H441 | – | 0.253 | 0.279 | 0.247 | 0.203 | 0.705 | 0.632 | 0.511 | 0.871 | – | 1.11 | 0.941 | 1.05 | 0.843 | 0.238 | 0.258 | 0.251 | 0.212 |
| NCI-H460 | 0.588 | 0.486 | 0.457 | 0.463 | 0.129 | 1.15 | 1.03 | 1.08 | 1.37 | 0.949 | 1.01 | 0.961 | 0.933 | 0.993 | 0.522 | 0.494 | 0.599 | 0.469 |
| NCI-H520 | 0.583 | 0.515 | 0.392 | 0.459 | 0.342 | 1 | 0.985 | 0.953 | 1.1 | 0.909 | 0.78 | 0.455 | 0.74 | 0.661 | 0.571 | 0.513 | 0.444 | 0.418 |
| NCI-H596 | – | 1.1 | 0.821 | 1.02 | 0.88 | 0.959 | 0.946 | 0.881 | 0.994 | – | 0.928 | 0.575 | 0.686 | 0.861 | 1.3 | 1.55 | 1.15 | 1.16 |
| NCI-H647 | 0.445 | 0.366 | 0.308 | 0.358 | 0.234 | 1.1 | 1.02 | 1.02 | 1.23 | 1.35 | 1.16 | 1.01 | 1.05 | 1.38 | 0.475 | 0.383 | 0.335 | 0.306 |
| NCI-H727 | 0.53 | 0.8 | – | 0.877 | 0.818 | 0.439 | 0.508 | 0.498 | 0.445 | – | 0.886 | 0.601 | 0.947 | 1.1 | 0.827 | 0.914 | 0.753 | 0.822 |
| NCI-H838 | 0.436 | 0.466 | 0.497 | 0.428 | 0.335 | 1.25 | 1.13 | 1.19 | 1.36 | 1 | 1.06 | 0.801 | 0.923 | 1.1 | 0.455 | 0.471 | 0.429 | 0.534 |
| NCI-H1355 | – | 0.331 | 0.381 | 0.37 | 0.317 | 0.988 | 0.819 | 0.902 | 1.01 | – | 0.981 | 0.935 | 0.809 | 0.947 | 0.348 | 0.33 | 0.366 | 0.318 |
| NCI-H1395 | – | 0.726 | 0.738 | 0.696 | 0.66 | 1.48 | 1.05 | 1.02 | 1.37 | 0.997 | 0.892 | 1.09 | 0.874 | 0.82 | 0.664 | 0.714 | 0.728 | 0.64 |
| NCI-H1437 | 0.582 | 0.55 | 0.626 | 0.513 | 0.43 | 1.07 | 1.08 | 1.23 | 1.29 | 1.26 | 1.27 | 1.25 | 1.23 | 1.26 | 0.618 | 0.516 | 0.544 | 0.607 |
| NCI-H1650 | 0.415 | 0.389 | 0.395 | 0.387 | 0.329 | 1.1 | 1.16 | 1.43 | 1.31 | 1.03 | 1.3 | 0.895 | 1.45 | 1.71 | 0.477 | 0.422 | 0.44 | 0.46 |
